Measured values: patent US20060148858A1, “1, 2-Azole derivatives with hypoglycemic and hypolipidemic activity” (priority 2002, published 2006)

Compared with `O=C(O)CCc1cc(OCCCCc2cc(-c3ccc(C(F)(F)F)cc3)no2)nn1-c1ccccc1` [Example 11, 3-[1-phenyl-3-(4-{3-[4-(trifluoromethyl)phenyl]-5-isoxazolyl}butoxy)-1H-pyrazol-5-yl]propionic acid], `O=C(O)Cc1ccccc1OCCCCc1cc(-c2ccc(C(F)(F)F)cc2)no1` [Example 17, [2-(4-{3-[4-(trifluoromethyl)phenyl]-5-isoxazolyl}butoxy)phenyl]acetic acid] is lower in melting point: 139 to 140 °C for the first, 122 to 123 °C for the second.

First: CC(C)c1nn(-c2ccc(C(F)(F)F)cn2)cc1CCCCOc1ccc(CC(=O)O)cc1 [Example 53, [4-(4-{3-isopropyl-1-[5-(trifluoromethyl)-2-pyridinyl]-1H-pyrazol-4-yl}butoxy)phenyl]acetic acid]
Second: CCCc1nn(-c2ccc(C(F)(F)F)cn2)cc1CCCCOc1ccc(CC(=O)O)cc1 [Example 88, [4-(4-{3-propyl-1-[5-(trifluoromethyl)-2-pyridyl]-1H-pyrazol-4-yl}butoxy)phenyl]acetic acid]
The melting point of the first is higher: 130 to 131 °C for the first, 121 to 122 °C for the second.

Compared with `CC(C)(Oc1ccc(OCCCCc2cc(-c3ccc(C(F)(F)F)cc3)no2)cc1)C(=O)O` [Example 15, 2-methyl-2-[4-(4-{3-[4-(trifluoromethyl)phenyl]-5-isoxazolyl}butoxy)phenoxy]propionic acid], `Cn1nc(OCCCc2cc(-c3ccc(C(F)(F)F)cc3)no2)cc1C(=O)O` [Example 7, 1-methyl-3-(3-{3-[4-(trifluoromethyl)phenyl]-5-isoxazolyl}propoxy)-1H-pyrazole-5-carboxylic acid] is higher in melting point: 103 to 104 °C for the first, 162 to 163 °C for the second.

Compared with `CCOc1cc(OCc2cn(-c3ccc(C(F)(F)F)cn3)nc2C)ccc1CCC(=O)O` [Example 19, 3-(2-ethoxy-4-{3-methyl-1-[5-(trifluoromethyl)-2-pyridyl]-1H-pyrazol-4-ylmethoxy}phenyl)propionic acid], `CCCc1nn(-c2ccc(C(F)(F)F)cn2)cc1COc1ccc(CCC(=O)O)c(OC)c1` [Example 120, 3-[2-methoxy-4-({3-propyl-1-[5-(trifluoromethyl)-2-pyridyl]-1H-pyrazol-4-yl}methoxy)phenyl]propionic acid] is higher in melting point: 151 to 152 °C for the first, 153 to 154 °C for the second.

Compared with `Cc1nn(-c2ccc(C(F)(F)F)cn2)cc1COc1cccc(OC(C)(C)C(=O)O)c1` [Example 32, 2-methyl-2-(3-{3-methyl-1-[5-(trifluoromethyl)-2-pyridyl]-1H-pyrazol-4-ylmethoxy}phenoxy)propionic acid], `CCCc1nn(-c2ccc(C(F)(F)F)cn2)cc1CCCOc1cccc(C(C)(C)C(=O)O)c1` [Example 159, 2-methyl-2-[3-(3-{3-propyl-1-[5-(trifluoromethyl)-2-pyridyl]-1H-pyrazol-4-yl}propoxy)phenyl]propanoic acid] is lower in melting point: 152 to 153 °C for the first, 82 to 83 °C for the second.

First: CCOc1nn(-c2ccc(C(F)(F)F)cn2)cc1CCCOc1cc(OC)ccc1CCC(=O)O [Example 143, 3-[2-(3-{3-ethoxy-1-[5-(trifluoromethyl)-2-pyridyl]-1H-pyrazol-4-yl}propoxy)-4-methoxyphenyl]propionic acid]
Second: CCOc1ccc(OCCCc2cn(-c3ccc(C(F)(F)F)cn3)nc2OCC)c(CCC(=O)O)c1 [Example 140, 3-[2-(3-{3-ethoxy-1-[5-(trifluoromethyl)-2-pyridyl]-1H-pyrazol-4-yl}propoxy)-5-ethoxyphenyl]propionic acid]
The melting point of the first is higher: 115 to 116 °C for the first, 104 to 105 °C for the second.

First: O=C(O)Cc1ccccc1OCCCc1cn(-c2ccc(C(F)(F)F)cn2)nc1-c1ccccc1 [Example 134, [2-(3-{3-phenyl-1-[5-(trifluoromethyl)-2-pyridyl]-1H-pyrazol-4-yl}propoxy)phenyl]acetic acid]
Second: COc1ccc(CC(=O)O)c(OCCCc2cn(-c3ccc(C(F)(F)F)cn3)nc2C(C)C)c1 [Example 205, [2-(3-{3-isopropyl-1-[5-(trifluoromethyl)-2-pyridyl]-1H-pyrazol-4-yl}propoxy)-4-methoxyphenyl]acetic acid]
The melting point of the first is lower: 133 to 134 °C for the first, 143 to 144 °C for the second.

Compared with `CCOc1nn(-c2cc(C(F)(F)F)ccn2)cc1CCCOc1cccc(CC(=O)O)c1` [Example 286, [3-(3-{3-ethoxy-1-[4-(trifluoromethyl)-2-pyridinyl]-1H-pyrazol-4-yl}propoxy)phenyl]acetic acid], `CCOc1nn(-c2ccc(C(F)(F)F)cn2)cc1CCCOc1cc(CCC(=O)O)cc(OC)c1` [Example 167, 3-[5-(3-{3-ethoxy-1-[5-(trifluoromethyl)-2-pyridyl]-1H-pyrazol-4-yl}propoxy)-3-methoxyphenyl]propanoic acid] is lower in melting point: 128 to 130 °C for the first, 99 to 100 °C for the second.

Compared with `Cn1ncc(CC(=O)O)c1OCCCc1cn(-c2ccc(C(F)(F)F)cn2)nc1C1CCCCC1` [Example 325, [5-(3-{3-cyclohexyl-1-[5-(trifluoromethyl)-2-pyridinyl]-1H-pyrazol-4-yl}propoxy)-1-methyl-1H-pyrazol-4-yl]acetic acid], `O=C(O)Cc1ccccc1OCc1cn(-c2ccc(C(F)(F)F)cn2)nc1C1CCCCC1` [Example 188, [2-({3-cyclohexyl-1-[5-(trifluoromethyl)-2-pyridyl]-1H-pyrazol-4-yl}methoxy)phenyl]acetic acid] is lower in melting point: 137 to 138 °C for the first, 131 to 132 °C for the second.

First: CCCc1nn(-c2ccc(C(F)(F)F)cn2)cc1CCCOc1ccc(CCC(=O)O)cc1 [Example 82, 3-[4-(3-{3-propyl-1-[5-(trifluoromethyl)-2-pyridyl]-1H-pyrazol-4-yl}propoxy)phenyl]propionic acid]
Second: CCCc1nn(-c2ccc(C(F)(F)F)cn2)cc1CCCOc1ccc(OC)c(CC(=O)O)c1 [Example 97, [2-methoxy-5-(3-{3-propyl-1-[5-(trifluoromethyl)-2-pyridinyl]-1H-pyrazol-4-yl}propoxy)phenyl]acetic acid]
The melting point of the first is lower: 118 to 119 °C for the first, 135 to 136 °C for the second.

Compared with `CCCCOc1cc(CCC(=O)O)ccc1OCCCc1cn(-c2ccc(C(F)(F)F)cn2)nc1OCC` [Example 165, 3-[3-butoxy-4-(3-{3-ethoxy-1-[5-(trifluoromethyl)-2-pyridyl]-1H-pyrazol-4-yl}propoxy)phenyl]propanoic acid], `CCCCc1nn(-c2ccc(C(F)(F)F)cn2)cc1CCCOc1cc(CC(=O)O)ccc1OCC` [Example 202, [3-(3-{3-butyl-1-[5-(trifluoromethyl)-2-pyridyl]-1H-pyrazol-4-yl}propoxy)-4-ethoxyphenyl]acetic acid] is higher in melting point: 92 to 93 °C for the first, 105 to 106 °C for the second.

Compared with `COc1ccc(CC(=O)O)cc1OCCCc1cn(-c2ccc(C(F)(F)F)cn2)nc1C(C)C` [Example 183, [3-(3-{3-isopropyl-1-[5-(trifluoromethyl)-2-pyridyl]-1H-pyrazol-4-yl}propoxy)-4-methoxyphenyl]acetic acid], `COc1cccc(CCC(=O)O)c1OCCCc1cn(-c2ccc(C(F)(F)F)cn2)nc1C(C)C` [Example 323, 3-[2-(3-{3-isopropyl-1-[5-(trifluoromethyl)-2-pyridinyl]-1H-pyrazol-4-yl}propoxy)-3-methoxyphenyl]propanoic acid] is lower in melting point: 122 to 123 °C for the first, 112 to 113 °C for the second.

First: CCOc1cc(OCCCc2cn(-c3ccc(C(F)(F)F)cc3)nc2OCC)ccc1CCC(=O)O [Example 114, 3-[2-ethoxy-4-(3-{3-ethoxy-1-[4-(trifluoromethyl)phenyl]-1H-pyrazol-4-yl}propoxy)phenyl]propanoic acid]
Second: CCCc1nn(-c2ccc(C(F)(F)F)cn2)cc1CCCCOc1c(CC(=O)O)cccc1OC [Example 295, [3-methoxy-2-(4-{3-propyl-1-[5-(trifluoromethyl)-2-pyridinyl]-1H-pyrazol-4-yl}butoxy)phenyl]acetic acid]
The melting point of the first is higher: 131 to 132 °C for the first, 111 to 112 °C for the second.

First: O=C(O)CCc1cccc(OCc2cn(-c3ccc(C(F)(F)F)cn3)nc2C2CCCCC2)c1 [Example 191, 3-(3-{3-cyclohexyl-1-[5-(trifluoromethyl)-2-pyridyl]-1H-pyrazol-4-yl}methoxyphenyl)propionic acid]
Second: O=C(O)CCCc1cccc(OCc2cn(-c3ccc(C(F)(F)F)cn3)nc2C2CCCCC2)c1 [Example 195, 4-(3-{3-cyclohexyl-1-[5-(trifluoromethyl)-2-pyridyl]-1H-pyrazol-4-yl}methoxyphenyl)butanoic acid]
The melting point of the first is lower: 94 to 95 °C for the first, 128 to 129 °C for the second.

First: CCc1cnn(CC(=O)O)c1OCCCc1cn(-c2ccc(C(F)(F)F)cn2)nc1C(CC)CC [Example 330, [4-ethyl-5-(3-{3-(1-ethylpropyl)-1-[5-(trifluoromethyl)-2-pyridinyl]-1H-pyrazol-4-yl}propoxy)-1H-pyrazol-1-yl]acetic acid]
Second: CCCc1cn(CC(=O)O)nc1OCCCc1cn(-c2ccc(C(F)(F)F)cn2)nc1CCC [Example 254, [4-propyl-3-(3-{3-propyl-1-[5-(trifluoromethyl)-2-pyridyl]-1H-pyrazol-4-yl}propoxy)-1H-pyrazol-1-yl]acetic acid]
The melting point of the first is lower: 124 to 125 °C for the first, 138 to 139 °C for the second.

Compared with `CC(C)c1nn(-c2ccc(C(F)(F)F)cn2)cc1CCCCOc1cc(CCC(=O)O)n(C)n1` [Example 50, 3-[3-(4-{3-isopropyl-1-[5-(trifluoromethyl)-2-pyridinyl]-1H-pyrazol-4-yl}butoxy)-1-methyl-1H-pyrazol-5-yl]propanoic acid], `CCCc1nn(-c2ccc(C(F)(F)F)cn2)cc1CCCCOc1nn(C)cc1CC(=O)O` [Example 61, [1-methyl-3-(4-{3-propyl-1-[5-(trifluoromethyl)-2-pyridinyl]-1H-pyrazol-4-yl}butoxy)-1H-pyrazol-4-yl]acetic acid] is lower in melting point: 113 to 114 °C for the first, 95 to 97 °C for the second.

First: Cc1nn(-c2ccc(C(F)(F)F)cn2)cc1COc1cc(/C=C/C(=O)O)n(C)n1 [Example 37, (E)-3-(1-methyl-3-{3-methyl-1-[5-(trifluoromethyl)-2-pyridyl]-1H-pyrazol-4-ylmethoxy}-1H-pyrazol-5-yl)propenoic acid]
Second: O=C(O)Cc1cccc(OCc2cn(-c3ccc(C(F)(F)F)cn3)nc2C2CCCCC2)c1 [Example 187, [3-({3-cyclohexyl-1-[5-(trifluoromethyl)-2-pyridyl]-1H-pyrazol-4-yl}methoxy)phenyl]acetic acid]
The melting point of the first is higher: 208 to 209 °C for the first, 129 to 130 °C for the second.
